# Literature values, collected in US20240335422A1, “COMPOSITION AND METHODS OF TREATMENT USING TRANSDERMAL SUPPLEMENTATION” (Xygenyx Inc., priority 2023, published 2024).
# Experiments:
# [1] = compared to α-tocopherol taken as 1.0
# [2] = even when dietary intake occurs in equal portions
# skin [3] = conditions: single penetration enhancer
# skin [4] = conditions: topical, in combination with silymarin and tocopherols, test studies
# [5] = not given; remark: listed apart in the source
# [6] = in vivo
# skin [7] = conditions: topical, concentrations 0.5-5%
# [8] = tested on: wide dynamic range neurons in the ventroposterolateral nucleus of the thalamus; conditions: in vivo
compound,measurement,setting,value
Cc1c(O)cc2c(c1C)O[C@](C)(CCC[C@H](C)CCC[C@H](C)CCCC(C)C)CC2 [γ-tocopherol],relative biological activity,[1],0.1
same,concentration in vivo relative to α-tocopherol,[2],roughly 10%
"C/C(=C\CO)CCC[C@H](C)CCC[C@H](C)CCCC(C)C [phytol, Phytol]",solubility,,"nearly insoluble in water, but soluble in most organic solvents"
"CC12CCC(CC1)C(C)(C)O2 [eucalyptol, 1,8-epoxy-p-menthane]",increase of transdermal drug uptake (factor),skin [3],more than 10
"NCCC(=O)N[C@@H](Cc1cnc[nH]1)C(=O)O [carnosine, Carnosine]",reduction of age-related wrinkles,skin [4],≤ 27%
CC(C)[C@@H]1CC[C@@H](C)C[C@H]1O [Menthol],increase of transdermal drug uptake (factor),skin [3],≥ 10
Cc1c(C)c2c(c(C)c1O)CC[C@@](C)(CCC[C@H](C)CCC[C@H](C)CCCC(C)C)O2 [α-tocopherol],reduction of risk of coronary disease,"[5]; dietary supplementation, doses up to 400 IU/day",up to 34%
same,reduction of risk of developing neurodegenerative diseases (Alzheimer's Syndrome or dementia),"[5]; dietary supplementation, doses up to 400 IU/day, controlled trials",≤ 24%
same,reduction in the development of age-related cataracts,"[5]; in combination with 10-20 mg β-carotene and 400-500 mg vitamin C, doses around 400-500 IU",23%
same,blood plasma concentration of F2-isoprostane,[5]; large doses of 1600-3200 IU/day,significantly lower
Cc1cc(O)cc2c1O[C@](C)(CCC[C@H](C)CCC[C@H](C)CCCC(C)C)CC2 [δ-tocopherol],relative biological activity,[1],0.03
Cc1cc(O)c(C)c2c1O[C@](C)(CCC[C@H](C)CCC[C@H](C)CCCC(C)C)CC2 [β-tocopherol],relative biological activity,[1],0.5
HGH: hormone comprising a peptide chain synthesized in the pituitary gland,biological half-life,[6],10-20 minutes
"C=CCCCCCCCCC(=O)N[C@@H](Cc1ccccc1)C(=O)O [UP, Undecylenoyl phenylalanine]",time of treatment to skin lightening effects,skin [7],≥ 7 days
"CCCCCc1cc(O)c2c(c1)OC(C)(C)C1CCC(C)=CC21 (stereo not drawn) [THC, Δ-9-tetrahydrocannabinol]",analgesic power relative to morphine,[8],ten times more powerful than morphine
